Laboratory results from patent publication US10494602B1, “Functional astrocytes and cortical neurons from induced pluripotent stem cells and methods of use thereof” (The Board of Trustees of the Leland Stanford Junior …, priority 2015, dated 2019).
“Also recorded” adds a separate entry of the source.

Legend:
[1] = target: element-binding protein (CBP) (Homo sapiens, UniProt Q92793); settings: cited from earlier work
[2] = tested on: Wnt processing and secretion; settings: cell-free assay; read-out: 1050, inhibition of Wnt processing and secretion; cited from earlier work
[3] = tested on: Wnt-stimulated cellular responses; settings: cited from earlier work
PORCN [4] = settings: read-out: EC50, Porcn inhibition; cited from earlier work
Wnt signaling = settings: TM3 cells; read-out: IC50, inhibition of Wnt signaling; cited from earlier work
BMP signaling = settings: cited from earlier work
[5] = tested on: voltage-gated Na+ channels; assay type: cell-based, human
TNKS2 = target: T1, TNKS2 (Homo sapiens, UniProt Q9H2K2); settings: cited from earlier work
T1 sequence (Q9H2K2 1-1166): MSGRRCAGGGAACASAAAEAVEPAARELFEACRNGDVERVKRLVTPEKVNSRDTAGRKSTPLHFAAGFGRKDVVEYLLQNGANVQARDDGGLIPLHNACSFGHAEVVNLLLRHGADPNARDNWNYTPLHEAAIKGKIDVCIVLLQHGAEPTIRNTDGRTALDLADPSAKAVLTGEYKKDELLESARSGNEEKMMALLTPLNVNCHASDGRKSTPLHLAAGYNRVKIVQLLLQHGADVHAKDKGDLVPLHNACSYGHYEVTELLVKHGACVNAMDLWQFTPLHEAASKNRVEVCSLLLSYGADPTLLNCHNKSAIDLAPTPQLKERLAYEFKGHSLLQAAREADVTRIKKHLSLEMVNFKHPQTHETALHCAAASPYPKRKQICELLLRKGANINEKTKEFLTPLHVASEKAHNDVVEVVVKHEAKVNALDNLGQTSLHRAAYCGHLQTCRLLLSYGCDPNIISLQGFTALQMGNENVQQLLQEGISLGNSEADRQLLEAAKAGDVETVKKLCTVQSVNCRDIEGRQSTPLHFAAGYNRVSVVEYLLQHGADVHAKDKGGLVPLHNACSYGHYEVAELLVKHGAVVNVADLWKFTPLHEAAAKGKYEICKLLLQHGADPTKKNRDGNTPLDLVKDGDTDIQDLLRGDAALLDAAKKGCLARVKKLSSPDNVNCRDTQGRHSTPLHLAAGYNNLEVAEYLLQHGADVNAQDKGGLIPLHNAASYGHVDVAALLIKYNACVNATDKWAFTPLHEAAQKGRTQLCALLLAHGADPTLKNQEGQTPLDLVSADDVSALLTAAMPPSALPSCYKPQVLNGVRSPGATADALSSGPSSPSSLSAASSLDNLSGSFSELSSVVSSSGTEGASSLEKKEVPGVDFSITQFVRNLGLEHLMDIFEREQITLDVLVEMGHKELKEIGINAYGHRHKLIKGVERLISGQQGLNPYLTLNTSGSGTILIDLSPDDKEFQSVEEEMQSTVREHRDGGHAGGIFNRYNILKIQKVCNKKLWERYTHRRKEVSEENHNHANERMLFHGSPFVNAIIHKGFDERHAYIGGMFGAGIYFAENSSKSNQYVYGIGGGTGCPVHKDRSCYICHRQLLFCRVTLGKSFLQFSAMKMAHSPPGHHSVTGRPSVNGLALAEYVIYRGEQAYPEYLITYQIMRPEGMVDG

[6] = tested on: spontaneous synaptic activity (EPSCs) of neurons in hCS slices; assay: Spontaneous EPSCs in acute hCS slice preparation (whole cell recording); assay type: cell-based, human; settings: kynurenic acid 1 mM bath application; n=6 cells, P=0.0008
Description: hCS were removed from Neurobasal-B27 media, quickly fixed to a block of 4% agarose, and covered in ice-cold oxygenated (95% 02 and 5% CO2) ACSF containing 126 mM NaCl, 2.5 mM KCl, 1.25 mM NaH2PO4, 2 mM MgCl2, 2 mM CaCl2), 26 mM NaHCO3and 10 mM glucose. 250 μm thick slices were cut using a Leica VT1200 vibrating microtome. After slicing, sections were moved to continuously oxygenated warm (˜32° C.) ACSF. Slices were incubated in warm ACSF for at least one hour prior to recording.
Whole cell patch clamp recordings were made at 22-25° C. Slices were superfused at a rate of 3 ml/min. Patch-clamp recordings were made using a MultiClamp 700A amplifier with Clampex 10.3 software. 3-5 MO borosilicate glass recording electrodes were filled with internal solution containing 120 mM potassium gluconate, 11 mM KCl, 1 mM MgCl2, 1 mM CaCl2, 10 mM HEPES, 1 mM EGTA, pH adjusted to 7.4 with KOH (290 mOsm). To determine if EPSCs recorded in voltage clamp are glutamate dependent, the glutamate receptor blocker kynurenic acid (1 mM) was added to the bath solution following at minimum 5 min of baseline recording. Evoked responses were produced by extracellular monopolar tungsten electrode placed 100-300 μm from the whole cell recording. […]

PORCN [7] = settings: HEK293 cells; read-out: IC50, Wnt3A-mediated activation of a multimerized TCF-binding site driving luciferase; cited from earlier work

element-binding protein (CBP), sequence (Q92793 whole entry): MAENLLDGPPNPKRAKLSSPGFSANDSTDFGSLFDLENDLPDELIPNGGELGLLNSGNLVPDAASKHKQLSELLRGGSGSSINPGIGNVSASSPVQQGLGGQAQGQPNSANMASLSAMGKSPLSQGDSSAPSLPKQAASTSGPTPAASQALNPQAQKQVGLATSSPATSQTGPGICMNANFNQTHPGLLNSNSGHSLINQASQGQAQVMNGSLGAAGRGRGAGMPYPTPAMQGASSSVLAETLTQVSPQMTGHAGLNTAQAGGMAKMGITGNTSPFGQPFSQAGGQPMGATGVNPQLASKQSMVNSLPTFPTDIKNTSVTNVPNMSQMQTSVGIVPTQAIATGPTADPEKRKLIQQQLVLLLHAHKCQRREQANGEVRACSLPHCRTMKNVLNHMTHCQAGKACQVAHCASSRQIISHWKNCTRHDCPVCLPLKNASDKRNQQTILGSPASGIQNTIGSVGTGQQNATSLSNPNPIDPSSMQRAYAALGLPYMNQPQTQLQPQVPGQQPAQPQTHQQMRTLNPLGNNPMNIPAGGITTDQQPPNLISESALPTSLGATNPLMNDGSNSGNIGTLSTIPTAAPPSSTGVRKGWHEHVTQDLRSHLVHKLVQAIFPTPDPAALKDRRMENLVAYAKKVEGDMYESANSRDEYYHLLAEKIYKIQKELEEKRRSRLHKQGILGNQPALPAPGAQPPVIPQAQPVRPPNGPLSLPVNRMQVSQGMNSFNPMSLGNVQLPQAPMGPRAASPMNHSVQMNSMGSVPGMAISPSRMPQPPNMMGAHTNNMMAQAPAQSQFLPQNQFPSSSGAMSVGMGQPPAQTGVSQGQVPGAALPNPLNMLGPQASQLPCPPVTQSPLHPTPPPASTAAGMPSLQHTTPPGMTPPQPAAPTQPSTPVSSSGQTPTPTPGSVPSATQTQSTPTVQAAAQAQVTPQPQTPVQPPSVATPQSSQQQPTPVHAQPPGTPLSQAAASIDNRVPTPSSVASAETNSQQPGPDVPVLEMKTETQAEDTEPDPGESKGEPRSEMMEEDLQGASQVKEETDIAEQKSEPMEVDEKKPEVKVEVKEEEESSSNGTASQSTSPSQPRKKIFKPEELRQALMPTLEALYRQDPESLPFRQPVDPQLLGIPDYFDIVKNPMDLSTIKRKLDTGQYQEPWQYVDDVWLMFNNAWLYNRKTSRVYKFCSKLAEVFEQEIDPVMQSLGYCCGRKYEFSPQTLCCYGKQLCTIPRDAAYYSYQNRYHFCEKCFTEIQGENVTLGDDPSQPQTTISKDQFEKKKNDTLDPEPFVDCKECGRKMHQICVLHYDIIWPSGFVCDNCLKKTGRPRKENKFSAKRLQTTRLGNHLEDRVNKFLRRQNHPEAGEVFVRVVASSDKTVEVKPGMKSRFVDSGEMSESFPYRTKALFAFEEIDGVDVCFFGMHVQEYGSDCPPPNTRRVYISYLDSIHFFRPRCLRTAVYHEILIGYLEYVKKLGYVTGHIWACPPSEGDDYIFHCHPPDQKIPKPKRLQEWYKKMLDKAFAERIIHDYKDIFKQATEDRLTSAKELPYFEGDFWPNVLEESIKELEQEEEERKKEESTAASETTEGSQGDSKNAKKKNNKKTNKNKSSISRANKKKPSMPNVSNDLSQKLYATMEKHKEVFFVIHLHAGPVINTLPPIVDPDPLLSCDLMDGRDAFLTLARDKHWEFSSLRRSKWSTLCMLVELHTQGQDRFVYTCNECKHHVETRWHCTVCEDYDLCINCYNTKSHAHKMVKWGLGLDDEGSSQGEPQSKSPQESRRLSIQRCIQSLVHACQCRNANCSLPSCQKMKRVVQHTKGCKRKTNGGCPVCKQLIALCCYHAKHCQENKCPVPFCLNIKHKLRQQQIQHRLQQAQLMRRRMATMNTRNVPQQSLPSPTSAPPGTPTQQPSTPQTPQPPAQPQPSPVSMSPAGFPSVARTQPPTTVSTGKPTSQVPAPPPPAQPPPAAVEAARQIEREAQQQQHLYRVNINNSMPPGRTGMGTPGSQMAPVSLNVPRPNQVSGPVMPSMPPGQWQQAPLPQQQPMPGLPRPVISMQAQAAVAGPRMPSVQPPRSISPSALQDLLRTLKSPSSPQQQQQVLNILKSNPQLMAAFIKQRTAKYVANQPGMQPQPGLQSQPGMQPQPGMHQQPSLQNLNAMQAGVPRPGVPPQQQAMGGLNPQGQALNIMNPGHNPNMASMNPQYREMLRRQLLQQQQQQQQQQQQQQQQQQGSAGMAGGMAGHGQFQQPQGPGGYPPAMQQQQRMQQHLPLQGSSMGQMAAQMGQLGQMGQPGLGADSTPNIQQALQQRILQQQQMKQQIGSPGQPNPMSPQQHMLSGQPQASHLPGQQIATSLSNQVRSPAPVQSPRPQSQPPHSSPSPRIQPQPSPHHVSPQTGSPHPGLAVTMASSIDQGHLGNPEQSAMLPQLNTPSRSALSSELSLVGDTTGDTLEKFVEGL

O=C1[C@H](Cc2ccc(O)cc2)N2C(=O)CCN(C(=O)NCc3ccccc3)[C@H]2CN1Cc1cccc2ccccc12 [ICG-001]
IC50 [1]: 3000 nM

Cc1ccc2nc(NC(=O)CSc3nc4c(c(=O)n3-c3ccccc3)SCC4)sc2c1 [IWP-2]
IC50 [2]: 27 nM
effect against Wnt-stimulated cellular responses [3]: no effect

O=C(CSc1nc2c(c(=O)n1-c1ccccc1)SCC2)Nc1ccc(-c2ccccc2)cn1 [IWP-L6]
EC50 (PORCN [4]): 0.5 nM

Cc1cc(-c2ncc(CC(=O)Nc3ccc(-c4cnccn4)cn3)cc2C)ccn1 [LGK-974]
IC50 (Wnt signaling): 0.4 nM

NC(=O)c1ccc(-c2nc(-c3ccc4c(c3)OCO4)c(-c3ccccn3)[nH]2)cc1 [SB-431542]
effect on BMP signaling (BMP signaling): no effect

NC1=N[C@H](O)[C@H]2[C@H]3O[C@]4(O)O[C@@H]([C@@H](O)[C@@]2(N1)[C@@H]4O)[C@]3(O)CO [TTX, tetrodotoxin]
block of transient inward voltage-gated Na+ current [5]: blocks

COc1ccc(-n2c(SCCCN3C(=O)c4cccc5cccc(c45)C3=O)nnc2-c2ccncc2)cc1 [WIKI4]
IC50 (TNKS2): 15 nM

O=C(O)c1cc(=O)c2ccccc2[nH]1 [kynurenic acid]
spontaneous synaptic activity (EPSCs) in sliced hCS [6]: significantly reduced; also recorded: blocked

Wnt-059 (C59)
IC50 (PORCN [7]): 0.074 nM
